Where “and” joins values, the source holds several entries; their conditions need not be identical. Identical values can stand only once. Like-named read-outs stand apart in the source and are kept apart here.
Columns and labels:
[1] = Mortality in 28-day 1,3-PS study; type: in vivo, Sprague Dawley rat; conditions: 50 mg/kg/day oral gavage, group of six male rats
Protocol: Groups consisting of six male Sprague Dawley rats (7-8 weeks old) were treated on twenty-eight consecutive days (i.e., days 1 through 28) with either water (vehicle), 12.5 mg 1,3-PS per kilogram body weight per day, 25 mg 1,3-PS per kilogram body weight per day, or 50 mg 1,3-PS per kilogram body weight per day via oral gavage. […] Tail vein blood specimens were collected on day −1 (i.e., one day before the start of treatment), and again on days 15, 29, and 42.

[2] = test system: Pig-A mutant phenotype RBCs and RETs; assay: Pig-A mutation assay, technical replicates (Example 1): flow cytometric scoring of CD59-negative RBCs/RETs before and after immunomagnetic separation; conditions: 60 mg/kg/day oral gavage days 1-3, blood day 29
[3] = test system: Pig-A mutant phenotype RBCs and RETs
reticulocytes = assay: Percentage of reticulocytes among total erythrocytes (bone marrow toxicity), pre-magnetic field analysis
[4] = test system: Pig-A mutant phenotype RBCs and RETs; assay: Pig-A mutation assay, spiking experiment (Example 2); conditions: blood day 35
[5] = calculated from pre- and post-magnetic field ratios, technical replicates, listed as PS
[6] = post-magnetic field, 4 min acquisition, technical replicates, listed as PS
[7] = post-magnetic field, technical replicates, listed as PS
[8] = pre-magnetic field, 3 min acquisition, technical replicates of one rat, listed as PS
[9] = 28 consecutive days oral gavage, 6 male rats per group, maximum observed on d29
[10] = 28 consecutive days oral gavage, 6 male rats per group, maximum observed on d42
[11] = "100" sample: 40 mg/kg/day 1,3-PS days 1-14, from pre- and post-magnetic field ratios (Table VI), listed as 100
[12] = "100" sample: 40 mg/kg/day 1,3-PS days 1-14, post-magnetic field, 4 min, listed as 100
[13] = "100" sample: 40 mg/kg/day 1,3-PS days 1-14, post-magnetic field, listed as 100

O=S1(=O)CCCO1 [1,3-Propane Sultone, 1,3-propane sultone]
Mortality [1]: one rat in the high dose group died on day 11 | Frequencies of mutant phenotype RBCs and RETs versus vehicle (in words) [2]: clearly led to elevated frequencies of mutant phenotype RBCs and RETs | Mutant RBCs per 10^6 Total RBCs [2, 5]: 61.1 per 10^6 Total RBCs and 65.7 per 10^6 Total RBCs and 55 per 10^6 Total RBCs | Mutant RETs per 10^6 Total RETs [2, 5]: 22 per 10^6 Total RETs and 16.6 per 10^6 Total RETs and 17.7 per 10^6 Total RETs | Mutant NCEs (events counted), POST-Magnetic Field Analyses [2, 6]: 6,466 and 7,590 and 7,054 | Mutant RETs (events counted), POST-Magnetic Field Analyses [2, 6]: 95 and 79 and 94 | Mutant RBC:Bead Ratio, POST-Magnetic Field Analyses [2, 7]: 0.4138 and 0.4132 (2×) | Mutant RET:Bead Ratio, POST-Magnetic Field Analyses [2, 7]: 0.00599 and 0.00426 and 0.3748 | Mutant NCEs (events counted), PRE-Magnetic Field Analyses [2, 8]: 83 and 75 and 64 | Mutant RETs (events counted), PRE-Magnetic Field Analyses [2, 8]: 1 (2×) and 2 | Mutant RBC frequency versus vehicle-treated rats (in words) ([3]; 12.5, 25, 50 (reduced to 37.5) mg/kg/day for 28 days, Day 15 through Day 42, FIG. 5C): significantly higher than those observed in vehicle-treated rats from Day 15 through Day 42 | Mutant RET frequency versus vehicle controls (in words) ([3]; 12.5, 25, 50 (reduced to 37.5) mg/kg/day for 28 days, days 15, 29, 42, FIG. 5B, Dunnett's t-test p<0.05): each dose group was significantly elevated relative to vehicle controls at every time point studied | Maximum Avg. Mutant Cell Freq., Mutant RETs [3, 9]: 106 Mutant RETs (d29); × 10^−6 | Maximum Avg. Mutant Cell Freq., Mutant RBCs [3, 10]: 72 Mutant RBCs (d42) × 10^−6 | % RET (reticulocytes; 60 mg/kg/day oral gavage days 1-3, blood day 29, technical replicates, listed as PS): 4.02% and 4.08% (2×) | % RET versus vehicle (in words) (reticulocytes; 12.5, 25, 50 (reduced to 37.5) mg/kg/day for 28 days, Day 15, FIG. 5A): reduced in a dose-dependent manner | % RET (reticulocytes; "100" sample: 40 mg/kg/day 1,3-PS oral gavage days 1-14, blood day 35, listed as 100): 5.92% and 5.9% | Mutant RBCs per 10^6 Total RBCs [4, 11]: 30 per 10^6 Total RBCs and 34.1 per 10^6 Total RBCs | Mutant RETs per 10^6 Total RETs [4, 11]: 25.2 per 10^6 Total RETs and 31.2 per 10^6 Total RETs | Mutant RBCs per 10^6 Total RBCs (Post-Column) ([4]; "100" sample: 40 mg/kg/day 1,3-PS days 1-14, post-column, avg 112,632,575 RBCs interrogated per sample, listed as 100): 30 per 10^6 Total RBCs and 34.1 per 10^6 Total RBCs | Mutant NCEs (events counted), POST-Magnetic Field Analyses [4, 12]: 3,304 and 3,192 | Mutant RETs (events counted), POST-Magnetic Field Analyses [4, 12]: 173 and 182 | Mutant RBC:Bead Ratio, POST-Magnetic Field Analyses [4, 13]: 0.2402 and 0.2497 | Mutant RET:Bead Ratio, POST-Magnetic Field Analyses [4, 13]: 0.01195 and 0.01347 | Mutant RBCs per 10^6 Total RBCs (Pre-Column) ([4]; "100" sample: 40 mg/kg/day 1,3-PS days 1-14, pre-column, avg 1,323,693 RBCs interrogated per sample): 27 per 10^6 Total RBCs | Mutant NCEs (events counted), PRE-Magnetic Field Analyses ([4]; "100" sample: 40 mg/kg/day 1,3-PS days 1-14, pre-magnetic field, 3 min, listed as 100): 36 and 31 | Mutant RETs (events counted), PRE-Magnetic Field Analyses ([4]; "100" sample: blood of rat given 40 mg/kg/day 1,3-PS oral gavage days 1-14, pre-magnetic field, 3 min): 1

CC(=O)Nc1ccc2c(c1)Cc1ccccc1-2 [2-Acetylaminofluorene]
Maximum Avg. Mutant Cell Freq., Mutant RBCs [3, 9]: 58 Mutant RBCs (d29) × 10^−6 | Maximum Avg. Mutant Cell Freq., Mutant RETs [3, 10]: 50 Mutant RETs (d42); × 10^−6

Cn1cnc([N+](=O)[O-])c1Sc1ncnc2nc[nH]c12 [Azathioprine]
Maximum Avg. Mutant Cell Freq., Mutant RETs ([3]; male, Sprague Dawley, rat, in vivo, po, 29 day): 13 Mutant RETs (d29); × 10^−6 | Maximum Avg. Mutant Cell Freq., Mutant RBCs ([3]; male, Sprague Dawley, rat, in vivo, po, 42 day): 4 Mutant RBCs (d42) × 10^−6

O=C(O)CCCc1ccc(N(CCCl)CCCl)cc1 [Chlorambucil]
Maximum Avg. Mutant Cell Freq., Mutant RBCs [3, 10]: 21 Mutant RBCs (d42) × 10^−6 | Maximum Avg. Mutant Cell Freq., Mutant RETs [3, 10]: 40 Mutant RETs (d42); × 10^−6

O=P1(N(CCCl)CCCl)NCCCO1 (stereo not drawn) [Cyclophosphamide]
Maximum Avg. Mutant Cell Freq., Mutant RETs [3, 9]: 5 Mutant RETs (d29); × 10^−6 | Maximum Avg. Mutant Cell Freq., Mutant RBCs [3, 10]: 3 Mutant RBCs (d42) × 10^−6

N[C@@H](Cc1ccc(N(CCCl)CCCl)cc1)C(=O)O [Melphalan]
Maximum Avg. Mutant Cell Freq., Mutant RBCs [3, 10]: 23 Mutant RBCs (d42) × 10^−6 | Maximum Avg. Mutant Cell Freq., Mutant RETs [3, 10]: 33 Mutant RETs (d42); × 10^−6

S=P(N1CC1)(N1CC1)N1CC1 [Thiotepa]
Maximum Avg. Mutant Cell Freq., Mutant RETs [3, 9]: 79 Mutant RETs (d29); × 10^−6 | Maximum Avg. Mutant Cell Freq., Mutant RBCs [3, 10]: 69 Mutant RBCs (d42) × 10^−6

From patent US9133505B2 (priority 2010, dated 2015)
